Laboratory results reported in ChEMBL document CHEMBL1201862, “PubChem BioAssay data set” (2004).
Active and inactive are the calls of the source.

Experiments:
[1] = inhibitors of PGC1a acetylation in cells, dose response, cell-based, cherry-picked samples (AID 720514); format: functional;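 also: potency may reflect raised or lowered acetylation signal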
Albumin = Albumin (Bos taurus, UniProt P02769); experiment: Counterscreen for inhibitors of T-cell receptor (TCR)-CD3 interaction: Fluorescence-based biochemical high throughput dose response assay to identify inhibitors of T-cell receptor (TCR)-CD3 interaction using a TAMRA-labeled BSA probe.; format: functional
Paired box protein Pax-8 = Paired box protein Pax-8 (Homo sapiens, UniProt Q06710); experiment: inhibitors of PAX8-driven TPO luciferase reporter, dose response, RMG-I cells, cherry-pick (AID 687027); format: functional, cell-based;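 also: luciferase reporter driven by Pax8 target thyroperoxidase promoter measured by SteadyGlo luminescence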
[2] = A2780 ovarian cancer cell cytotoxicity, dose response, cytotoxicity control, plate reader, dry powder samples (AID 743046); format: functional, cell-based
[3] = NIH:OVCAR-3 ovarian cancer cell cytotoxicity, dose response, PAX8 inhibitor project, plate reader, dry powder samples (AID 743044); format: functional, cell-based
[4] = IGROV1 ovarian cancer cell cytotoxicity, dose response, PAX8 inhibitor project, plate reader, dry powder samples (AID 743043); format: functional, cell-based; settings: IGROV-1
[5] = cytotoxicity in OVCAR8 ovarian cancer cells, dose response, PAX8 project, cell-based, plate reader, dry powder samples (AID 743197); format: functional; settings: OVCAR-8
[6] = HEK293 cell cytotoxicity, dose response, cytotoxicity control, cherry-picks, set 5 (AID 1053117); format: functional, cell-based
[7] = inhibitors of intracellular T. cruzi replication, confirmation, NIH3T3 host cells, beta-gal luminescence (AID 2044); format: functional, cell-based;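 also: intracellular parasites grown in NIH/3T3 mouse fibroblasts as host cells; luminescent beta-galactosidase reporter signal from transgenic T. cruzi replicating inside host cells; inhibitors lower the luminescence signal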
[8] = cytotoxicity toward NIH3T3 fibroblasts, dose response, counter-screen, cell-based, ATP luminescence, mouse fibroblasts (AID 2010); format: functional;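 also: cells exposed to compound for about 90 hours before reading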
[9] = target: T1, Short transient receptor potential channel 4 (Mus musculus, UniProt Q9QUQ5); experiment: mouse TRPC4 channel inhibitors, dose response, cell-based, HEK293 TRPC4/mu-opioid, Fluo-4 calcium (AID 434942); format: functional;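 also: potency of inhibitors blocking the TRPC4 calcium response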
T1 sequence (Q9QUQ5 whole entry): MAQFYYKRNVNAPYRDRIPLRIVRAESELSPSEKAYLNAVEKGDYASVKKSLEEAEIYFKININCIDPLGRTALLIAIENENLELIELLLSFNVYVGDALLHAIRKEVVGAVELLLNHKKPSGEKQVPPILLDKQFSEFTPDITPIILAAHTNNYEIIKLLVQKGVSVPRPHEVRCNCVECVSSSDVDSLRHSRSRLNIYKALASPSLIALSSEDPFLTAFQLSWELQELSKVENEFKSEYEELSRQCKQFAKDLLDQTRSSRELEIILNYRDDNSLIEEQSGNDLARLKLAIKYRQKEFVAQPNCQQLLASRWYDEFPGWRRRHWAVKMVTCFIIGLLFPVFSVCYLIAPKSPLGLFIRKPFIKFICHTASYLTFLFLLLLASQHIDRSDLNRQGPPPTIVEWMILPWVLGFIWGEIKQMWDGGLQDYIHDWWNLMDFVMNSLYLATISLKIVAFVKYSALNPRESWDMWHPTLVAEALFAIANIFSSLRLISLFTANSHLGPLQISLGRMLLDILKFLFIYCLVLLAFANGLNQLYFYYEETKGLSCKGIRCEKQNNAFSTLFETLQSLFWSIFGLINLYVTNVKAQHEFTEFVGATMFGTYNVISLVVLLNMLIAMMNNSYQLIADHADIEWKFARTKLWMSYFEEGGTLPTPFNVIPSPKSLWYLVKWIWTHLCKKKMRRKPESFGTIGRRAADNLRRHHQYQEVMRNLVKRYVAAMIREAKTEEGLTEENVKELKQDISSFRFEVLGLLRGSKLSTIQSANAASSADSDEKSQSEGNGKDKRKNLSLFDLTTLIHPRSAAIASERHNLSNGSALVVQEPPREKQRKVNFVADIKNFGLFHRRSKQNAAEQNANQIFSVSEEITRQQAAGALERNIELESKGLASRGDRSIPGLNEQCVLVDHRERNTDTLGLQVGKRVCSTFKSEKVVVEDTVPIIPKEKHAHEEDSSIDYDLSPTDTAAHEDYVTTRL

[10] = target: T2, DNA repair and recombination protein RAD54-like (Homo sapiens, UniProt Q92698); experiment: inhibitors of human RAD54 branch migration, confirmation, biochemical, fluorescence, cherry-picked samples, dose series (AID 651657); format: functional
T2 sequence (Q92698 whole entry): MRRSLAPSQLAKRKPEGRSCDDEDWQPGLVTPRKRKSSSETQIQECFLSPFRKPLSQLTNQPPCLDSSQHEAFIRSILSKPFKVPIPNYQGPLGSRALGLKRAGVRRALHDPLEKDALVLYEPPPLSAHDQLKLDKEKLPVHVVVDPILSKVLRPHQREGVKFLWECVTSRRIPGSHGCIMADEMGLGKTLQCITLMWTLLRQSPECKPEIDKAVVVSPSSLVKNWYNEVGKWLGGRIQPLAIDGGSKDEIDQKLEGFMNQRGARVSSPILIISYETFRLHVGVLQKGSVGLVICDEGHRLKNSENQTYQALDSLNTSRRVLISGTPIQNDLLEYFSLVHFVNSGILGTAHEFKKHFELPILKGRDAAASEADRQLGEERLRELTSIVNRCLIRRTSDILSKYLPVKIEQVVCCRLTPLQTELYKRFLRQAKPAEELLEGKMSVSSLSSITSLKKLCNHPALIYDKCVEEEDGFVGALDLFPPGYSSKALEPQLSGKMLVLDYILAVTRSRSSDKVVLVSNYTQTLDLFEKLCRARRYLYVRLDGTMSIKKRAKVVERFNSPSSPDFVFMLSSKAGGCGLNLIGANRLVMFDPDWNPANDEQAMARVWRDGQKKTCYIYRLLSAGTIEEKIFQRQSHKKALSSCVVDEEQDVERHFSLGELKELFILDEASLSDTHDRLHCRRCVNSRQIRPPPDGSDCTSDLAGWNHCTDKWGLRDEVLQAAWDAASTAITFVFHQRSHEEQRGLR

[11] = target: DNA repair protein RAD52 homolog (Homo sapiens, UniProt P43351); format: functional, biochemical
HEK293 = experiment: HEK293T cell cytotoxicity, dose response, cytotoxicity control, ATP luminescence, cherry-pick samples (AID 687005); format: functional, cell-based; settings: Homo sapiens;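 also: cells exposed to compound for 48 hours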
[12] = HEK293 Cytotoxicity Assay Measured in Cell-Based System Using Plate Reader - 7071-01_Inhibitor_Dose_CherryPick_Activity_Set2.; format: functional
[13] = ADAM10 inhibitors, peptide cleavage, dose response, biochemical, QFRET (AID 743254);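 also: ADAM10 enzyme with the DM2 quenched FRET peptide as substrate; EDANS fluorescence gain as the protease cuts the substrate; inhibitor potency against ADAM10 proteolytic activity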
[14] = target: Disintegrin and metalloproteinase domain-containing protein 17 (Homo sapiens, UniProt P78536); experiment: ADAM17 protease inhibitors, dose response, counter-screen for ADAM10 exosite inhibitor project, biochemical, quenched FRET substrate (AID 743253)
[15] = A549 cell cytotoxicity, dose response, cytotoxicity control, plate reader, cherry-pick, antagonist series (AID 743412); format: functional, cell-based
[16] = HepG2 cell cytotoxicity, dose response, cytotoxicity control, plate reader, cherry-pick, antagonist series (AID 743416); format: functional, cell-based
[17] = LGR2 antagonists, dose response, cell-based, HEK293, CRE-luciferase reporter, cherry pick, set 2 (AID 743343); format: functional;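 also: transfected cells were stimulated with diluted bursicon conditioned medium after compound addition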
[18] = MC4R antagonists, dose response, counter-screen for LGR2 antagonist project, cell-based, plate reader, cherry pick (AID 743444); format: functional;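 also: transfected HEK 293 cells stimulated with alpha-MSH peptide; potency of inhibitors of the alpha-MSH evoked signal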
[19] = HEK293 cell cytotoxicity, dose response, cytotoxicity control, plate reader, cherry-picked samples (AID 743446); format: functional, cell-based
[20] = P. falciparum 3D7-ScDHODH growth inhibitors, dose response, SYBR Green, dry powder samples (AID 1159570); format: functional, cell-based;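 also: parasite growth measured after 72 hours of compound exposure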
[21] = HepG2 cell cytotoxicity, dose response, cytotoxicity control, plate reader, dry powder samples (AID 1159569); format: functional, cell-based;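 also: inhibitor potency with signal falling toward the positive control level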
[22] = P. falciparum Dd2 growth inhibitors, dose response, SYBR Green, cherry-picked samples (AID 1159567); format: functional, cell-based
[23] = P. falciparum Dd2 growth inhibitors, dose response, SYBR Green, dry powder samples (AID 1159566); format: functional, cell-based;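 also: potency for growth inhibition with lower SYBR green DNA signal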
[24] = P. falciparum ATP4 D1247Y mutant growth inhibitors, dose response, NITD609-resistant line, SYBR Green, dry powder (AID 1159571); format: functional, cell-based;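 also: parasites synchronized at ring stage by sorbitol before testing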
[25] = intracellular Trypanosoma cruzi inhibitors in host cells – cell-based, plate reader, cherry-pick samples, set 3, dose response (AID 651818); format: functional;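 also: compounds incubated with infected cells for about four days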
[26] = HepG2 cell cytotoxicity, dose response, cytotoxicity control, cherry-picked samples (AID 1159577); format: functional, cell-based
[27] = miR-122 activators in hepatoma reporter cells, dose response, cell-based, Huh7 psiCHECK-miR122, Renilla luciferase, cherry-picked (AID 651956); format: functional;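 also: huh7 hepatoma cells stably carrying a psiCHECK-2 miR-122 sensor plasmid; renilla luciferase signal reporting endogenous miR-122 activity after 48 h compound exposure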
[28] = HEK293T cytotoxicity, dose response, cytotoxicity control for miR-122 modulator project, cell-based, inhibitor set, cherry-pick, set 2 (AID 720697); format: functional
[29] = growth suppression of PTEN-null colon cells, dose response, cell-based, HCT116 PTEN knockout (AID 1047); format: functional;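 also: HCT116 colon tumor cells with PTEN knocked out; cells exposed to compound for 60 hours before readout; potency for loss of cell viability measured by luminescence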
[30] = growth suppression of beta-catenin-knockout colon cells, dose response, cell-based, HCT116, human colon tumor (AID 1045); format: functional;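 also: HCT116 colon tumor cells with beta catenin knocked out; cells exposed to compound for 60 hours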
[31] = Luminescence Cell-Based Dose Retest to Confirm Inhibitors of Cancer Stem Cells. [Related pubchem assays (depositor defined):AID2717, AID2721]; format: functional; settings: Homo sapiens
Cytochrome P450 2C9 = Cytochrome P450 2C9 (Homo sapiens, UniProt P11712)
[32] = cytotoxicity in HeLa cells, dose response, cytotoxicity control, cell-based, 24 h, dry powder, set 2 (AID 651774); format: functional

Disintegrin and metalloproteinase domain-containing protein 17, sequence (P78536 whole entry, the tested form may be a part): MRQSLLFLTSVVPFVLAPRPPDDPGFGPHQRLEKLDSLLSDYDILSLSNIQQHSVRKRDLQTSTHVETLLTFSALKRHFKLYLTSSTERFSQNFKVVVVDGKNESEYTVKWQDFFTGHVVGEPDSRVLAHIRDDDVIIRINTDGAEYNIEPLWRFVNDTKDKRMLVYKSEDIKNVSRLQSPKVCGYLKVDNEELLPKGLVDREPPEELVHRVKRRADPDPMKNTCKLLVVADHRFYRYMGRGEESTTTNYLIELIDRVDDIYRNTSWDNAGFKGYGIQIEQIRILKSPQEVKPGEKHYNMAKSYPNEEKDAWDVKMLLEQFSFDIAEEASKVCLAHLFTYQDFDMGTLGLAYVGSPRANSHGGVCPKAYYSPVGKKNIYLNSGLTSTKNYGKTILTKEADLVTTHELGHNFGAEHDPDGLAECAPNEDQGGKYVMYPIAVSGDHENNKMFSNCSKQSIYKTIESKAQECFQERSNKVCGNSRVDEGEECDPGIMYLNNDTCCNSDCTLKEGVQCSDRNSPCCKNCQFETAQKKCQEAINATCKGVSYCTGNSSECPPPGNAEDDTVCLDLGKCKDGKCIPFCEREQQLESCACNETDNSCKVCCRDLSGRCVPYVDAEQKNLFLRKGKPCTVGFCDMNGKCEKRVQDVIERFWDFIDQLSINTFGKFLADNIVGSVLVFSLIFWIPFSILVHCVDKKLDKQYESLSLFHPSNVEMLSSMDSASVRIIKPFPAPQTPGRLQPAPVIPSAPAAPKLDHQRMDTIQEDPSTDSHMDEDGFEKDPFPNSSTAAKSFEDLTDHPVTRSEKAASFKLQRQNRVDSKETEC
Albumin, sequence (P02769 whole entry): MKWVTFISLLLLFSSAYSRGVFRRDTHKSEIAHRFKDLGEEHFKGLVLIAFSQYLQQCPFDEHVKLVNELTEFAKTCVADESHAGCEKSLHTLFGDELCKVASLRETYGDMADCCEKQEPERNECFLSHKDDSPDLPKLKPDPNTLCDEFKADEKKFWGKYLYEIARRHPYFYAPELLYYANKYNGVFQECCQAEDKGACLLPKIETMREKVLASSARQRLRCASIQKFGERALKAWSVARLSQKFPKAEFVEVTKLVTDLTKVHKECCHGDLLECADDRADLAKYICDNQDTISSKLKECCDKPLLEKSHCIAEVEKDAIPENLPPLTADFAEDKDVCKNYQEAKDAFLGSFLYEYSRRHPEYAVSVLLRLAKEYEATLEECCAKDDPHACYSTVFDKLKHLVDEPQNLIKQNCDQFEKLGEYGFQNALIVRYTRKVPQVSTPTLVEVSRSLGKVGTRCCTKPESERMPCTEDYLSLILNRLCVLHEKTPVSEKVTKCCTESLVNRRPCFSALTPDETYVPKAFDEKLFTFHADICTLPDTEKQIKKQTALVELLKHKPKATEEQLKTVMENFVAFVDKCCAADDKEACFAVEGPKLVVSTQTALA
Paired box protein Pax-8, sequence (Q06710 whole entry): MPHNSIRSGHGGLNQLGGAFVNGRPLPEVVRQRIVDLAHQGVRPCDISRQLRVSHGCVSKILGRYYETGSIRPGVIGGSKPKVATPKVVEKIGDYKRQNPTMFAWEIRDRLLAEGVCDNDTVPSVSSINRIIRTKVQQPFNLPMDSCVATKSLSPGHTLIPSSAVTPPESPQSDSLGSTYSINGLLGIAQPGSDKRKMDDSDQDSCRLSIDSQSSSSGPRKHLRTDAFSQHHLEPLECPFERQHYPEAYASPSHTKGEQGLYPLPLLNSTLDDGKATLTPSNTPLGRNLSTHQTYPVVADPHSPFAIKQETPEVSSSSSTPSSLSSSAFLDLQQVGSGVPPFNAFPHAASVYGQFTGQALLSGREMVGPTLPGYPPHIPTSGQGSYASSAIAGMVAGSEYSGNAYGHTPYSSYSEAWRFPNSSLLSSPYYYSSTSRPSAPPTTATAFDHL
Cytochrome P450 2C9, sequence (P11712 whole entry): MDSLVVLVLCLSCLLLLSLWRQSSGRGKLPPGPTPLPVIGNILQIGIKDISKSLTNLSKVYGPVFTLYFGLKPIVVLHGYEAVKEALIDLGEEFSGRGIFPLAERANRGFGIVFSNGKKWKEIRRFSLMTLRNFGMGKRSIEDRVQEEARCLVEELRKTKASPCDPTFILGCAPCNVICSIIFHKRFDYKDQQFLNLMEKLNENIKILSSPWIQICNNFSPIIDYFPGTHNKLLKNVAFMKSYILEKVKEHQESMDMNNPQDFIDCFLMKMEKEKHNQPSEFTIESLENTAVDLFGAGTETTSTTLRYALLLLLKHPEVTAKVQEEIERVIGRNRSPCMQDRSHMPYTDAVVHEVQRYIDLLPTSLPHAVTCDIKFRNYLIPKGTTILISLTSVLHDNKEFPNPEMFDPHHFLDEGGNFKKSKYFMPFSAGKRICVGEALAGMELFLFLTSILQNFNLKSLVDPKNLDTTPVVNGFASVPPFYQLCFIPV
DNA repair protein RAD52 homolog, sequence (P43351 whole entry): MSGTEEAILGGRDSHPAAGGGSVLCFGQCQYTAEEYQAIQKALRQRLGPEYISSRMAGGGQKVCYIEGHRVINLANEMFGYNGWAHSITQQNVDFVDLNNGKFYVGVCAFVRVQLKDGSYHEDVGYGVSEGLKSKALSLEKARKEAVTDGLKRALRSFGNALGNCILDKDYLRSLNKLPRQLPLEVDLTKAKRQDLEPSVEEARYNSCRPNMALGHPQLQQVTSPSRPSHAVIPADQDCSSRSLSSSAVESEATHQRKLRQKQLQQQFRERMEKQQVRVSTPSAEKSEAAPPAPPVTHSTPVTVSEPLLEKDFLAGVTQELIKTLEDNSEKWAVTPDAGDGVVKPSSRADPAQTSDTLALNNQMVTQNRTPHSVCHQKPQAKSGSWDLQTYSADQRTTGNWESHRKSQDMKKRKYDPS

## CCN(CC(=O)Nc1ccccc1C(F)(F)F)C(=O)CCSc1ccc(F)cc1
[1]
  AC50: 27 µM (active)

## Cc1cc(C)c(-c2cc(NC(=O)COC(=O)c3ccc(NC(=O)CC#N)cc3)n(-c3ccccc3)n2)cc1C
Albumin
  IC50: > 94.1 µM (inactive)

## Cc1ccc(N2C(=O)/C(=C\NNC(=O)C3COc4ccccc4O3)c3ccccc3C2=O)cc1 (stereo not drawn)
Albumin
  IC50: > 94.1 µM (inactive)

## C[C@@H]1CCCCO[C@H](CN(C)C(=O)C2CCCCC2)[C@@H](C)CN([C@@H](C)CO)C(=O)c2cc(NC(=O)Nc3ccc(F)cc3)ccc2O1
Paired box protein Pax-8
  AC50: 4.07 µM (active)
[2]
  AC50: 48.1 µM (active)
[3]
  AC50: 38.4 µM (active)
[4]
  AC50: 63.4 µM (active)
[5]
  AC50: 69.9 µM (active)

## O=S(=O)(c1ccccc1F)N1CC[C@H]2[C@H](CO)Nc3ccc(-c4cccc(F)c4)cc3[C@H]21
[6]
  AC50: 46.2 µM (active)

## COc1ccc(Nc2nc(NCC3CCCO3)c3ccccc3n2)c(OC)c1 (stereo not drawn)
[7]
  EC50: 0.465 µM (active)
[8]
  EC50: > 30 µM (not active)
[9]
  EC50: 0.376 µM (active)
[10]
  AC50: 57.9 µM (active)
[11]
  AC50: 13.4 µM (active)

## O=C(C[C@@H]1CC[C@@H]2[C@H](COC[C@H](O)CN2S(=O)(=O)c2ccc(Oc3ccccc3)cc2)O1)NC1CCC1
HEK293
  AC50: > 52 µM (inactive)
[12]
  AC50: > 52 µM (inactive)

## FC(F)(F)c1cccc(NC(S)=NCC2COc3ccccc3O2)c1 (stereo not drawn)
[13]
  IC50: 16.8 µM (inactive)
[14]
  IC50: > 69.5 µM (inactive)

## COc1ccc2nc(NC(=O)c3ccco3)sc2c1
[15]
  AC50: > 52 µM (inactive)
[16]
  AC50: > 52 µM (inactive)
[17]
  AC50: 6.48 µM (active)
[18]
  AC50: 9.96 µM (active)
[19]
  AC50: > 52 µM (inactive)

## N#C[C@@H]1[C@@H](c2ccc(C3=CCCCC3)cc2)[C@H](CO)N1C(=O)NC1CCCC1
[20]
  AC50: 3.06 µM (active)
[21]
  AC50: 35.6 µM (active)
[22]
  AC50: 2.28 µM (active)
[23]
  AC50: 1.46 µM (active)
[24]
  AC50: 2.61 µM (active)

## CCCNC(=O)N(C)C[C@H]1Oc2cc(C#CCC(C)C)ccc2S(=O)(=O)N([C@@H](C)CO)C[C@H]1C
[1]
  AC50: 26.5 µM (active)

## C[C@H](CO)N1C[C@H](C)[C@H](CN(C)Cc2ccc(C(F)(F)F)cc2)Oc2c(NC(=O)c3nc4ccccc4s3)cccc2C1=O
[25]
  AC50: 0.94 µM (active)
[20]
  AC50: 3.74 µM (active)
[21]
  AC50: 46.2 µM (active)
[22]
  AC50: 2.71 µM (active)
[23]
  AC50: 0.823 µM (active)
[26]
  AC50: > 39 µM (inactive)
[24]
  AC50: 1.69 µM (active)

## CCC(=O)N1[C@H](CO)[C@H](c2ccccc2)[C@H]1CN(C(C)C)S(C)(=O)=O
[27]
  AC50: 35.4 µM (active)
[28]
  AC50: 0.525 µM (active)

## C=C(C)COc1ccc(-c2[nH]nc(C)c2-c2ccc(OC)cc2)c(O)c1
[29]
  EC50: 17.7 µM (active)
[30]
  EC50: 18 µM (active)
[31]
  AC50: 3.41 µM (active)
[13]
  IC50: 9.09 µM (active)
[14]
  IC50: > 69.6 µM (inactive)
Cytochrome P450 2C9
  AC50: 25.1 µM (inconclusive)

## CCn1nnnc1NCc1ccc(N2CCCC2)cc1
[32]
  AC50: > 70 µM (inactive)

## CCn1nnnc1NCc1cccn1C
[32]
  AC50: 31.1 µM (active)

## C[C@H]1CN([C@@H](C)CO)C(=O)c2cc(NS(=O)(=O)c3ccc(F)cc3)ccc2O[C@@H]1CN(C)S(=O)(=O)c1ccccc1
HEK293
  AC50: > 52 µM (inactive)
[12]
  AC50: > 52 µM (inactive)
